“Also recorded” adds a separate entry of the source.
Columns and labels:
[1] = tested on: (S)-α-phenethylamine:pyruvate transaminase; test: Substrate specificity for amino group receptors (acetophenone quantified by HPLC); assay type: biochemical, Pseudomonas sp. KNK425
Procedure: The mixture was reacted at 30° C. for 1 hour. The resulting reaction mixture was analyzed by high-performance liquid chromatography, to quantify acetophenone.
(§1) The assay conditions by high-performance liquid chromatography are as follows.

[2] = tested on: 4-aminobutyrate:2-ketoglutarate transaminase; details: substance as amino group donor; amino group receptor 2-ketoglutaric acid; Table 4; cited from earlier work
[3] = tested on: (S)-α-phenethylamine:pyruvate transaminase; test: Substrate specificity for amino group donors (dabsylated alanine quantified by HPLC); assay type: biochemical, Pseudomonas sp. KNK425; details: for Relative Activity (%): substance as amino group donor, 22.5 mM, 22.5 mM pyruvic acid, pH 7.0, 30° C., 1 hour, (S)-phenethylamine = 100, Table 2
Procedure: The mixture was reacted at 30° C. for 1 hour, and thereafter immersed in boiling water for 5 minutes, to stop the reaction. The reaction mixture obtained after termination of reaction was diluted five times with 0.2M sodium carbonate buffer, and 0.2 mL of a 10 mM acetone solution of dabsyl chloride was added to 0.1 mL portion of the resulting dilution. The reaction mixture was reacted at 70° C. for 15 minutes, and after cooling, 0.1 mL of 1 N HCl was added. This reaction mixture was analyzed by high-performance liquid chromatography to quantify dabsylated alanine.
as §1
The results thereof, expressed in terms of the relative activity where an activity when using (S)-phenethylamine as an amino group donor is 100, are shown in Table 2.

[4] = tested on: (S)-α-phenethylamine:pyruvate transaminase; test: as above; assay type: biochemical, Pseudomonas sp. KNK425; details: substance as amino group donor; for Relative Activity (%) of (S)-α-Phenethylamine:Pyruvate Transaminase [Present Invention]: Table 4; for Relative Activity (%): Table 1
[5] = tested on: ω-amino acid:pyruvate transaminase; details: substance as amino group donor; amino group receptor pyruvic acid; Table 4; cited from earlier work
[6] = ketone compound as amino group receptor, donor (S)-α-phenethylamine, same manner as Example 5, Table 5
[7] = compound as amino group receptor, donor (S)-α-phenethylamine, same manner as Example 5, Table 6
[8] = substance as amino group receptor, 22.5 mM, donor 22.5 mM (S)-α-phenethylamine, pH 7.0, 30° C., 1 hour, pyruvic acid = 100, Table 3
[9] = amino group receptor 2-ketoglutaric acid
[10] = amino group receptor pyruvic acid

COc1ccc(CCC(C)=O)cc1 [4-(4′-Methoxyphenyl)-2-butanone]
Relative Activity (%) [1, 6]: 35%

O=CCCc1ccccc1 [3-Phenylpropionaldehyde]
Relative Activity (%) [1, 7]: 16%

CC(=O)C(=O)O [Pyruvic acid]
Activity of the enzyme to the substance as amino group receptor (in words) [1]: high activity; also recorded: exhibiting activity; also recorded: exhibits activity
Relative Activity (%) [1, 7]: 100%
Relative Activity (%) [1, 8]: 100%

NCCCC(=O)O [4-Aminobutyric acid]
Relative Activity (%) of 4-Aminobutyrate:2-ketoglutarate Transaminase [Derived from Pseudomonas F-126] [2]: 100%
Activity of the enzyme to the substance as amino group donor (in words) [3]: does not act
Relative Activity (%) of (S)-α-Phenethylamine:Pyruvate Transaminase [Present Invention] [4, 9]: 0%

CC(=O)COc1ccccc1 [Phenoxy-2-propanone]
Relative Activity (%) [1, 7]: 46%

CCCCCCC(C)N (stereo not shown) [2-Octylamine]
Relative Activity (%) [3]: 46%

O=CC(=O)O [Glyoxylic acid]
Activity of the enzyme to the substance as amino group receptor (in words) [1]: high activity; also recorded: exhibiting activity; also recorded: exhibits activity
Relative Activity (%) [1, 8]: 100%

CCCCCC(C)N (stereo not shown) [2-Heptylamine]
Relative Activity (%) [3]: 28%

NCCCCC(N)C(=O)O (racemic) [DL-Lysine]
Activity of the enzyme to the substance as amino group donor (in words) [3]: not exhibiting activity; also recorded: does not act
Relative Activity (%) [4, 10]: 0%

CC(=O)c1ccncc1 [4-Acetylpyridine]
Relative Activity (%) [1, 6]: 8%

CC(=O)CC(=O)c1ccccc1 [Benzoyl acetone]
Relative Activity (%) [1, 6]: 12%

NCCCc1ccccc1 [3-Phenylpropylamine]
Relative Activity (%) [3]: 1%

CC(=O)Cc1cccc(C(F)(F)F)c1 [3′-Trifluoromethylphenyl acetone]
Relative Activity (%) [1, 6]: 60%

CC(=O)c1nccs1 [2-Acetylthiazole]
Relative Activity (%) [1, 6]: 4%

NCCCCN [Putrescine]
Relative Activity (%) of 4-Aminobutyrate:2-ketoglutarate Transaminase [Derived from Pseudomonas F-126] [2]: 8%
Activity of the enzyme to the substance as amino group donor (in words) [3]: does not act; also recorded: not exhibiting activity
Relative Activity (%) of ω-Amino acid:Pyruvate Transaminase [Derived from Pseudomonas F-126] [5]: 18%
Relative Activity (%) of (S)-α-Phenethylamine:Pyruvate Transaminase [Present Invention] [4, 9]: 0%
Relative Activity (%) of (S)-α-Phenethylamine:Pyruvate Transaminase [Present Invention] [4, 10]: 0%

NCCc1ccccc1 [β-Phenethylamine]
Relative Activity (%) [3]: 23%

CCCCCN [Amylamine]
Relative Activity (%) [3]: 5%

Cl.N [Ammonium Chloride]
Activity of the enzyme to the substance as amino group donor (in words) [3]: does not also act
Relative Activity (%) [4, 10]: 0%

O=CCc1ccccc1 [Phenylacetaldehyde]
Relative Activity (%) [1, 7]: 37%

CCC(=O)C(=O)O [2-Ketobutyric acid]
Relative Activity (%) [1, 8]: 5.8%

COCC(C)=O [Methoxypropanone]
Relative Activity (%) [1, 7]: 5%

CC(=O)c1ccccn1 [2-Acetylpyridine]
Relative Activity (%) [1, 6]: 42%

CC(C)N [Isopropylamine]
Relative Activity (%) [3]: 0%

C[C@H](N)c1ccccc1 [(S)-α-Phenethylamine]
Activity of the enzyme to the substance as amino group donor (in words) [3]: especially high activity; also recorded: specifically high activity; also recorded: exhibiting activity; also recorded: exhibits high activity
Relative Activity (%) [3]: 100%
Relative Activity (%) [4, 10]: 100%
Relative Activity (%) of (S)-α-Phenethylamine:Pyruvate Transaminase [Present Invention] [4, 10]: 100%

CC(N)CCc1ccccc1 (stereo not shown) [1-Phenyl-3-aminobutane]
Relative Activity (%) [3]: 80%

CC(=O)c1ccco1 [2-Acetylfuran]
Relative Activity (%) [1, 6]: 3%

CCCCN [n-Butylamine]
Relative Activity (%) [3]: 2%

CC(=O)c1ccccc1O [2′-Hydroxyacetophenone]
Relative Activity (%) [1, 6]: 24%

CCC(=O)Cc1ccccc1 [1-Phenyl-2-butanone]
Relative Activity (%) [1, 6]: 5%

COc1ccc(CC(C)=O)cc1 [4′-Methoxyphenyl acetone]
Relative Activity (%) [1, 6]: 12%

COc1cccc(C(C)=O)c1 [3′-Methoxyacetophenone]
Relative Activity (%) [1, 6]: 4%

CC(=O)c1cccnc1 [3-Acetylpyridine]
Relative Activity (%) [1, 6]: 14%

CC(=O)c1ccc(Cl)cc1 [4′-Chloroacetophenone]
Relative Activity (%) [1, 6]: 22%

NCCC(=O)O [β-Alanine]
Relative Activity (%) of 4-Aminobutyrate:2-ketoglutarate Transaminase [Derived from Pseudomonas F-126] [2]: 0%
Activity of the enzyme to the substance as amino group donor (in words) [3]: does not act; also recorded: not exhibiting activity
Relative Activity (%) of ω-Amino acid:Pyruvate Transaminase [Derived from Pseudomonas F-126] [5]: 100%
Relative Activity (%) of (S)-α-Phenethylamine:Pyruvate Transaminase [Present Invention] [4, 9]: 0%
Relative Activity (%) of (S)-α-Phenethylamine:Pyruvate Transaminase [Present Invention] [4, 10]: 0%

CCCN [n-Propylamine]
Relative Activity (%) [3]: 0%

NCCS(=O)(=O)O [Taurine]
Activity of the enzyme to the substance as amino group donor (in words) [3]: does not act; also recorded: not exhibiting activity
Relative Activity (%) of ω-Amino acid:Pyruvate Transaminase [Derived from Pseudomonas F-126] [5]: 132%
Relative Activity (%) of (S)-α-Phenethylamine:Pyruvate Transaminase [Present Invention] [4, 10]: 0%

CC(N)c1cccc(O)c1 (stereo not drawn) [3′-Hydroxy-α-phenethylamine]
Relative Activity (%) [3]: 52%

NCc1ccccc1 [Benzylamine]
Relative Activity (%) [3]: 13%

COc1ccc(CC(C)=O)cc1OC [3′,4′-Dimethoxyphenyl acetone]
Relative Activity (%) [1, 6]: 38%

NC(CCC(=O)O)C(=O)O (racemic) [DL-Glutamic Acid]
Activity of the enzyme to the substance as amino group donor (in words) [3]: does not act
Relative Activity (%) [4, 10]: 0%

O=C(O)CCC(=O)C(=O)O [2-Ketoglutaric acid]
Activity of the enzyme to the substance as amino group receptor (in words) [1]: did not exhibit an activity; also recorded: does not act
Relative Activity (%) [1, 8]: 0%

CC(=O)c1cccc(O)c1 [3′-Hydroxyacetophenone]
Relative Activity (%) [1, 6]: 6%

CCCC(=O)C(=O)O [2-Keto-valeric acid]
Relative Activity (%) [1, 8]: 1.5%

CC(=O)CCc1ccccc1 [Benzyl acetone]
Relative Activity (%) [1, 6]: 70%

NCC(=O)O [Glycine]
Activity of the enzyme to the substance as amino group donor (in words) [3]: does not act
Relative Activity (%) [4, 10]: 0%

CC(=O)c1cnccn1 [Acetylpyrazine]
Relative Activity (%) [1, 6]: 100%

C[C@@H](N)c1ccccc1 [(R)-α-Phenethylamine]
Relative Activity (%) [3]: 3%

N[C@@H](CC(=O)O)C(=O)O [L-Aspartic Acid]
Activity of the enzyme to the substance as amino group donor (in words) [3]: does not act
Relative Activity (%) [4, 10]: 0%

COc1ccc(CC(C)N)cc1OC (stereo not shown) [1-(3,4-Dimethoxyphenyl)-2-aminopropane]
Relative Activity (%) [3]: 18%

NC1CCCCC1 [Cyclohexylamine]
Relative Activity (%) [3]: 1%

CCC(C)N (stereo not shown) [2-Butylamine]
Relative Activity (%) [3]: 1%

CCCC(C)N (stereo not shown) [2-Pentylamine]
Relative Activity (%) [3]: 4%
